Experimental data: a melting point compilation (Tetko et al.; mined from patent text by program, amines drawn as free bases though some values may be those of a salt)

Row | SMILES | melting point [°C]
1 | CCCc1c(Cc2ccc(-c3ccccc3C#N)cc2)c(O)nc2ccnn12 | 236
2 | CCc1cc(NCc2ccc(-c3ccccc3C#N)cc2)n2ncc([N+](=O)[O-])c2n1 | 205 to 207
3 | OCCCc1cnoc1-c1ccc2c(c1)OCO2 | 45 to 46
4 | OCCC1CCc2cc(OCc3ccc(-c4ccccc4)cc3)ccc2C1 (stereo not given) | 101 to 102
5 | Cn1c(C(F)(F)F)nn(-c2cc(F)c(C#N)cc2F)c1=O | 74
6 | COCO[C@@H](C(=O)OC)[C@@H](Sc1ccccc1[N+](=O)[O-])c1ccc(OC)cc1 | 155 to 158
7 | Cc1c(NC(=O)NCC(C)O)c(C)c2c(c1-c1ccccc1)OCC2c1ccc(C(C)C)cc1 (stereo not given) | 171 to 182
8 | O=C(N[C@@H](Cc1ccccc1)C(=O)On1nnc2ccccc21)OCc1ccccc1 | 120 to 125
9 | CSc1ccc(-c2cc(-c3nc4ccccc4c(=O)n3-c3ccccc3)sc2N2CCOCC2)cc1 | 218 to 220
10 | COc1nccc2c1C(C)(O)c1c([nH]c3ccncc13)C2(C)O (stereo not given) | > 250
11 | Nc1ccc(CS(=O)(=O)CCO)c(CS(=O)(=O)CCO)c1 | 168 to 171
12 | CCc1ccc2ccc(=O)[nH]c2n1 | 133 to 134
13 | COc1cc2c(cc1OC)OCC(C(=O)O)=C2 | 225 to 228
14 | CC1(C)C2CCC1(C(=O)P(=O)(c1ccccc1)c1ccccc1)C(=O)C2=O (stereo not given) | 92.1
15 | N[C@@H](CCC(=O)O)C(=O)N[C@@H](Cc1ccccc1)C(=O)OCc1ccccc1 | 103 to 104
16 | CCOC(=O)C(=CNc1c[nH]nn1)C(=O)c1cc(F)c(F)cc1F | 157 to 159
17 | Cc1ccccc1C=C(C#N)C=O | 81.5
18 | CCOC(=O)C(C#N)C(=O)c1ccc[nH]1 (stereo not given) | 138 to 139
19 | CCC(=O)Nc1c(C(=O)c2cccc(C)c2)[nH]c2cc(Cl)ccc12 | 152 to 155
20 | CCC(Cl)C(=O)NCCSc1nc(C(C)(C)C)n[nH]1 (stereo not given) | 68 to 70
21 | Cc1cc(=O)[nH]c2ccc(OCCCN3CCC(NC(=O)c4ccccc4)CC3)cc12 | 243 to 245
22 | COc1cccc(C(N)c2sccc2S(=O)(=O)Nc2onc(C)c2Br)c1 (stereo not given) | 70 to 73

Row | SMILES | melting point [°C]
23 | Clc1nc(Br)cnc1N1CCNCC1 | 114 to 115
24 | Nc1scc2c1C(=O)c1ccc(Cl)cc1-2 | 201 to 202
25 | Fc1cc(OC23CC4CC(CC(C4)C2)C3)ccc1N1CCCC1 | 99 to 106
26 | Cc1cc(-c2cnn3c(C(F)(F)F)cc(-c4ccc(Cl)cc4)nc23)cc(C)n1 | 256
27 | NCCCCCC(=O)Nc1cccc(C(=O)NCCC(=O)O)c1 | 221
28 | Nc1ccc2nc(-c3cccnc3)nn2c1 | 230
29 | COc1cc(CN2C(=O)C3(COc4cc5c(cc43)OCCO5)c3ccccc32)ccc1F (stereo not given) | 161 to 163
30 | CC(Oc1ccc(F)cc1)c1ccnn2cnnc12 (stereo not given) | 103 to 104
31 | CN(C)C[C@@H]1NCCC[C@H]1O (relative stereo) | 50 to 60
32 | CC(=O)SCCCn1cc(C2=C(c3cn(C)c4ccccc34)C(=O)NC2=O)c2ccccc21 | 210 to 213
33 | COc1cc(OC)cc(N2CCN(C(=S)Nc3cc4c(nc3OC)CCC4)CC2)c1 | 169 to 170
34 | Cc1oc(-c2ccccc2)nc1COc1ccc(OCc2ncccc2CC(=O)O)cc1 | 126 to 127
35 | Cc1cccc(C=NN2CCN(C3c4ccccc4C=C(C#N)c4ccccc43)CC2)n1 (stereo not given) | 200 to 202
36 | O=C(O)C1(c2ccccc2)CCC2(CC1)OCCO2 | 134 to 139
37 | CC(=Cc1cc(Br)ccc1O)[N+](=O)[O-] | 95 to 97
38 | CN(C)c1ccc(-c2cc(N)n[nH]2)cc1 | 169 to 170
39 | CSc1ccc(CSc2cccc(C(=O)Nc3ccc(C#N)cn3)c2)cc1 | 161 to 162
40 | C[C@H](CN(O)C(N)=O)NC(=O)OC(C)(C)C | 156 to 160
41 | COC(=O)C(CCSC)N(C(=O)OC(C)(C)C)C(=O)c1ccc(N)c2ccccc12 (stereo not given) | 131 to 132
42 | O=C1c2ccccc2OCC1SC(=O)C(F)(F)F (stereo not given) | 75 to 79
43 | CCOC(=O)/C=C/c1cc(-c2c(CC(=O)Nc3ccc(Cl)cc3C(F)(F)F)c(=O)oc3cc(Cl)c(C)cc23)ccc1F | 160 to 162

Second part, the compound after the results:

Row | melting point [°C] | SMILES
44 | 138 to 139 | O=C(O)[C@H](Cc1ccc(C(F)(F)F)cc1)[C@@H](O)c1ccccc1 (racemic)
45 | 275 | O=C(c1cccnc1)c1ccc2c(c1)CN1C=CNC1=N2
46 | 120 to 121 | O=C1CCCCCC1C(C[N+](=O)[O-])c1ccc(OCc2ccccc2)cc1 (racemic)
47 | 62 to 65 | CCOC(=O)c1c(C)nc2c(nc(C)n2CC)c1OCC
48 | 174 to 176 | Cc1cn(CC(=O)N(CCNC(=O)OC(C)(C)C)CC(=O)Oc2c(F)c(F)c(F)c(F)c2F)c(=O)[nH]c1=O
49 | 209 to 210 | Cc1c(S(=O)(=O)Nc2ccc(-c3nc(CO)cs3)cc2S(C)(=O)=O)sc2ccc(F)cc12
50 | 113 to 115 | COc1cc(COc2nn(-c3ccccc3)cc2/C=C/c2csc(C(C)(C)C)n2)ccc1OCc1nc(-c2ccc(CC(=O)O)cc2)oc1C
51 | 104 to 105 | COc1ccc(C2=NN(c3ccc(OCc4ccccc4)cc3)C(=O)[C@@H]3CC=CC[C@H]23)cc1OC
52 | 63 to 64 | O=C(O)C(Cl)(Cl)CCCCCCCCCCOc1ccc(Cl)cc1
53 | 314 to 316 | NS(=O)(=O)c1cc2[nH]c(-c3ccccc3)nc2cc1Cl
54 | 261 to 263 | CCNc1nc(NC)cc(NS(=O)(=O)c2ccc(N)cc2)n1
55 | 87 to 88 | C=CCc1cc(C(=O)OC)ccc1OCCCCCOc1ccc2c(=O)cc(C(=O)OC)oc2c1CCC
56 | 118 to 119 | Cc1sc(-c2ccccc2)nc1COc1ccc(C=O)cc1
57 | 266 to 267 | COc1ccc(Nc2cc3c(cc2Nc2ccccc2)C(=O)NC3=O)cc1
58 | 67 to 70 | Cc1cc(NC(=O)NC(=O)c2ccccc2N2CCOCC2)ccc1Oc1ncc(Br)cn1
59 | 308 | O=c1c(-c2cccc(Cl)c2)coc2cc(O)c(O)cc12
60 | 72.5 | CCC(=O)Oc1cc(OC)cc(OC)c1C(=O)C=Cc1ccc(C)o1
61 | 254 to 256 | CC1NC(=O)NN=C1c1ccc(NCc2cccnc2)cc1 (stereo not given)
62 | 109 to 110 | OC1CCCCC1Oc1cccc(COc2cccc3cccnc23)c1 (stereo not given)

Row | melting point [°C] | SMILES
63 | 126 | O=C(Oc1ccc(Cl)cc1)n1c2c(c(=O)n(C3CCCCO3)c1=O)CCC2 (stereo not given)
64 | 98 to 100 | C=CCOc1cc2c(cc1C)OC1(CC2(C)C)CC(C)(C)c2cc(OCC=C)c(C)cc2O1
65 | 116 to 118 | c1ccc2c(c1)nc1n2CCCO1
66 | > 260 | Cn1c(=O)oc2cc(N3C[C@H](C(N)=O)OC3=O)ccc21
67 | 132 to 134 | COc1cccc(N2CCN(Cc3cn4cc(Cl)ccc4n3)CC2)c1
68 | 64 to 69 | CCc1nc2c(C)cc(C)nc2n1Cc1ccc(C(CCNS(=O)(=O)C(F)(F)F)c2ccccc2)cc1 (stereo not given)
69 | 199 to 201 | CS(=O)(=O)c1ccc(-c2cnn(-c3ccc(F)cc3)c(=O)c2-c2cccc(F)c2)cc1
70 | 129 to 130 | COCc1ccc(-c2ncccc2S(=O)(=O)Nc2ncc(C)nc2OC)cc1
71 | 131 to 133 | N[C@H]1CCCC[C@H]1CCC(O)(P(=O)(O)O)P(=O)(O)O (relative stereo)
72 | 206 to 208 | COc1c(N2C[C@H]3CC=C[C@@]3(N)C2)c(F)cc2c(=O)c(C(=O)O)cn([C@@H]3C[C@@H]3F)c12
73 | 256 to 258 | O=C(O)c1cn2c3c(cccc3c1=O)CCC2
74 | 104 to 106 | CC(C)(C)OC(=O)NCC1(C(=O)O)CC1
75 | 138 to 140 | CC(C)n1cc(-c2nn(-c3cccc(C(F)(F)F)c3)ccc2=O)c(-c2ccccc2)n1
76 | > 290 | COc1cc(-c2nc(N(C)CCN)c3c(C)c(C#N)sc3n2)cc(OC)c1OC
77 | 148 to 150 | O=C1OC[C@@H](CF)N1c1nc(-c2ccc(Br)cc2)cs1
78 | 141 to 143 | Cc1cn(-c2ccc(NC(=O)c3ccc(C)c(C#Cc4ccc(NC(C)C)nn4)c3)cc2C(F)(F)F)cn1
79 | 60 to 63 | CCc1cn(C(CC)C(=O)N(C)C)nc1-c1ccccc1Cl (stereo not given)
80 | 85 to 89 | CN(C)CC1CNc2ccccc2C1 (stereo not given)
81 | 117 to 119 | C[C@H]1[C@H](O)[C@H](O)C(S(=O)(=O)c2ccccc2)=C[C@H](C)[C@H]1O[Si](C)(C)C(C)(C)C

Row | melting point [°C] | SMILES
82 | 220 to 222 | O=C(O)c1cccc2c(-c3ccccc3)coc12
83 | 115 to 116 | CC(C)=CC(n1cncn1)C(C)(O)C(C)(C)C (stereo not given)
84 | 72 to 73 | N#CCSC(=S)SCCc1ccccc1
85 | 166 to 168 | O=C(CBr)Nc1cc(F)ccc1C(=O)O
86 | 218 to 219 | N#Cc1ccc2c(c1)CS(=O)(=O)NN=C2c1ccc(F)cc1
87 | 273 to 275 | O=C1CCC2(CCC(=O)c3cc([N+](=O)[O-])ccc32)C(=O)N1 (stereo not given)
88 | 228 to 231 | Cc1ccccc1NC(=O)c1ccc(C(=O)N2Cc3cccn3Cc3ccccc32)cc1
89 | 30 to 33 | COC(=O)c1ccc(OCC=C(C)CCC=C(C)C)cc1
90 | 227 to 228 | OCC1OC(c2n[nH]c3cncnc23)C(O)C1O (stereo not given)
91 | 178 to 184 | CS(=O)(=O)c1cccc(C(=O)Nc2ccc(-n3nc(C(F)(F)F)cc3C3CC3)cc2)c1
92 | 101 to 102 | COC(=O)COc1cccc2c(CNC(=O)COc3ccccc3)coc12
93 | 125 to 127 | CCN(CC)C1CCN(c2ccc(C(C)=O)cc2)CC1
94 | 132 to 133 | CCOC(CNC(=S)Nc1ccccn1)OCC
95 | 78 to 79 | C[C@@H](NC(=O)c1sc(-c2ccc(Cl)cc2)nc1C(F)(F)F)[C@](O)(Cn1cncn1)c1ccc(F)cc1F
96 | 161 to 162 | COc1cc(C(C)C)c2c(c1)S(=O)(=O)N(COc1cc(C(F)(F)F)nn1-c1ccncc1)C2=O
97 | 133 to 135 | Cc1c(SCCCSCCn2c([N+](=O)[O-])cnc2C)ccnc1CNc1cnc2ccccc2c1
98 | 273 to 274 | O=C1OCC2=C1C(c1ccccc1[N+](=O)[O-])C1=C(COC1=O)N2
99 | 295 to 302 | COCCn1cc2c(=O)[nH]c(=O)[nH]c2n1
100 | 221 | CC(=O)N1CCN=C1c1c(Cl)nc(N)nc1Cl
